Tests used:
[1] = Administration of pentasaccharide sodium salt in minipigs: iontophoresis vs passive, I.V. and subcutaneous; plasma antifactor Xa (Example 3); assay type: in vivo, minipig (YUCATAN strain)
Protocol: Administration in minipigs of pentasaccharide sodium salt by iontophoresis at a set current density
Specialists consider minipigs of the YUCATAN strain to be an excellent animal model for studying the administration in man of medicaments by iontophoresis. This is because the skin structure of this animal is very similar to that of human skin.
The following tests were carried out on the aforementioned minipig with the aim of comparing the administration of the sodium salt of the pentasaccharide used in the previous examples by iontophoresis with administration by subcutaneous or intravenous injection.
For these tests, pairs of adhesive electrode sets were formed, each pair having a donor electrode assembly formed by a reversible negative electrode (active electrode) in contact with a first reservoir element holding the pentasaccharide to be administered, and a passive electrode assembly formed by a positive electrode (back electrode) in contact with a second reservoir element (receptacle element) holding an indifferent electrolyte.
Referring to the figure, each electrode assembly included a disc 1 of polyethylene foam having an axial cylindrical recess 2, the said disc having an adhesive face 3 and a non-adhesive face 4, each of the said faces having the shape of an annular area with a width of two centimetres. The end 5 of the recess in the disc, on the non-adhesive face side, was closed off by an electrode 6 in the form of a silver disc chlorided on one of its faces, the said disc having a cross-sectional area of 20 cm^2. The chlorided face 7 of the electrode disc is turned towards the interior of the recess. […] The said support disc, having a diameter intermediate between that of the electrode 6 and the disc 1, was bonded onto the non-adhesive face of the latter disc. The recess 2 in the disc 1 was filled with a conductive hydrogel 11 forming the reservoir element. The adhesive face 3 of the disc 1 was coated with a pressure-sensitive adhesive designed to be applied to the skin, the said face 3 and the face 12 adjacent to the reservoir element 11 being initially covered with a peelable non-stick polyester protective film which was removed before application to the skin.
In the donor electrode assembly, the negative electrode (active electrode) of chlorided silver contained a quantity of silver chloride equivalent to 1.8 mAh/cm^2, thus allowing the electrode to sustain the quantity of current flowing through the electrodes over the duration of the iontophoretic treatment, namely 1.2 mAh/cm^2. The reservoir element associated with the negative electrode was filled over a thickness of 2 mm, i.e. a quantity of 4 g over the 20 cm^2 of electrode, with a hydrogel based on xanthan and carob extract having 3% of dry extract and containing 2% by weight of sodium salt of the pentasaccharide of formula (I) given above. The donor electrode assembly therefore contained 80 mg of pentasaccharide in a ratio of 4 mg/cm^2 for each of the animals which were treated.
In the passive electrode assembly, the positive electrode (back electrode) made of chlorided silver contained a quantity of silver chloride equivalent to 0.1 mAh/cm^2, and the reservoir element associated with this electrode consisted of the same hydrogel as the one present in the donor electrode assembly, but without pentasaccharide and instead holding 4% by weight of NaCl.
An electrical signal generator, connectable to the electrodes of each electrode assembly pair, made it possible to deliver between the said electrodes a pulsed electrical signal of controlled intensity, having a frequency of 25 kHz and a duty ratio equal to 50%. […]

[2] = Transdermic passage of sodium pentasaccharide salt by iontophoresis at constant voltage through nude rat skin (Example 1)
Protocol: Study of the transdermic passage of a sodium pentasaccharide salt by iontophoresis at constant voltage.
The operation was carried out in iontophoresis cells of identical structure. Each iontophoresis cell consisted of three coaxial adjacent cylindrical compartments having a cross-sectional area of 2 cm^2, namely, in this order, a donor compartment, a receiver compartment and a back-electrode compartment, these three compartments being each separated from the following one in leak-tight fashion by a piece of nude rat skin (OFA/hr/hr) used as a membrane for studying the transcutaneous diffusion. […] The receiver compartment, having a volume of 10 ml, held physiological saline solution supplemented with 500 ppm of NaN3 and was stirred using a magnetic bar. The back-electrode compartment, which was identical to the donor compartment, held 0.5 ml of a 2% by weight aqueous solution of sodium chloride as well as 500 ppm by weight of NaN3. At its opposite end from the receiver compartment, the donor compartment was equipped with a negative electrode. In the same way as the donor compartment, the back-electrode compartment was equipped with a positive electrode (back electrode).
The rat skin samples had had the subcutaneous tissue removed and had been preserved by freezing at -40° C. until they were mounted in the iontophoresis cell, with the dermic faces turned towards the receiver compartment, after they had been placed for 15 minutes in physiological saline solution supplemented with 500 ppm of NaN3.
For each of the tests which were carried out, four identical iontophoresis cells were started simultaneously. The active exchange surface area was 2 cm^2 for each skin.
A pulsed current generator made it possible to set up an electrical signal of the potentiostatic type between the electrodes of the four cells, mounted in parallel, with a peak voltage equal to 2.2 volts and a duty ratio of 50% (i.e. an average voltage of 1.1 volts) and a frequency of 25 kHz.
The pulsed current produced by the generator was applied for 6 hours, the electrode of the donor compartment of each cell being connected to the negative pole of the said generator, and the back electrodes to the positive pole.
At the end of the said time, an aliquot of the medium contained in the receiver compartment was withdrawn and the quantity of pentasaccharide that had passed through the skin separating the donor and the receiver compartments of each cell was determined by assay. A second sample was taken 24 hours after the start of each experiment, i.e. 18 hours after the electrical signal had stopped.
Five tests 1a to 1e were carried out as follows:
Test 1a: The negative electrode and the positive electrode consisted of a titanium film having a thickness equal to 10 μm. No voltage was applied to the electrodes, in order to determine the passive transcutaneous diffusion.
Test 1b: The negative electrode and the positive electrode consisted of a graphite sheet having a thickness of 60 μm.
Test 1c: The negative electrode and the positive electrode consisted of a titanium film having a thickness equal to 10 μm.
Test 1d to 1e: The negative electrode consisted of a silver film having a thickness of 15 μm, chlorided beforehand on one face in order to contain a silver chloride layer corresponding to 1.8 mAh/cm^2, whereas the positive electrode consisted of a silver film having a thickness of 15 μm, very slightly chlorided on one face (a quantity of silver chloride corresponding to 0.1 mAh/cm^2, the chlorided face of each electrode being on the side adjacent to the rat skin membrane.
In tests Ia to Id, the donor and the receiver compartments of each cell held a 0.06 molar buffer composition based on sodium monohydrogenphosphate and dihydrogenphosphate in equimolar quantities, so as to keep the pH in the said compartments at a value of about 7. In test 1e, no buffer was used.

[3] = test 3b: iontophoresis 0.20 mA/cm^2, 6 hours
[4] = test 3c: I.V. bolus 0.240 mg/kg
[5] = test 3d: subcutaneous 0.200 mg/kg

- Plasma level at 0 minutes ([1]; test 3a: passive, no current): 0 "Golden standard" units of ant
- Plasma level at 5 minutes ([1]; test 3a: passive, no current): 0 "Golden standard" units of ant
- Plasma level at 15 minutes ([1]; test 3a: passive, no current): 0 "Golden standard" units of ant
- Plasma level at 30 minutes ([1]; test 3a: passive, no current): 0 "Golden standard" units of ant
- Plasma level at 1 hour ([1]; test 3a: passive, no current): 0 "Golden standard" units of ant
- Plasma level at 2 hours ([1]; test 3a: passive, no current): 0 "Golden standard" units of ant
- Plasma level at 4 hours ([1]; test 3a: passive, no current): 0 "Golden standard" units of ant
- Plasma level at 6 hours ([1]; test 3a: passive, no current): 0 "Golden standard" units of ant
- Plasma level at 8 hours ([1]; test 3a: passive, no current): 0 "Golden standard" units of ant
- Plasma level at 12 hours ([1]; test 3a: passive, no current): 0 "Golden standard" units of ant
- Plasma level at 24 hours ([1]; test 3a: passive, no current): 0 "Golden standard" units of ant
- Plasma level at 30 hours ([1]; test 3a: passive, no current): 0 "Golden standard" units of ant
- plasma levels, expressed in terms of antifactor Xa, compared with intravenous or subcutaneous injections ([1]; test 3b: iontophoresis): higher plasma levels
- Plasma level at 0 minutes [1, 3]: 0 "Golden standard" units of ant
- Plasma level at 30 hours [1, 3]: 0 "Golden standard" units of ant
- bioavailability (active principle administered, normalized to quantity present in the electrodes) ([1]; test 3b, 80 mg engaged): about 9%
- quantity of pentasaccharide administered per mAh ([1]; test 3b, for 1 mAh/cm^2): 292 μg/cm^2
- quantity of pentasaccharide administered per cm^2 ([1]; test 3b, for 1.2 mAh/cm^2): 350 μg/cm^2
- quantity of pentasaccharide actually administered by iontophoresis ([1]; test 3b, for the 20 cm^2, from areas under the curves): 7 ± 1.3 mg
- Plasma level at 0 minutes [1, 4]: 0 "Golden standard" units of ant
- Plasma level at 24 hours [1, 4]: 0 "Golden standard" units of ant
- Plasma level at 30 hours [1, 4]: 0 "Golden standard" units of ant
- Plasma level at 0 minutes [1, 5]: 0 "Golden standard" units of ant
- Plasma level at 24 hours [1, 5]: 0 "Golden standard" units of ant
- Plasma level at 30 hours [1, 5]: 0 "Golden standard" units of ant
- quantities of pentasaccharide diffused into the receiver compartment by iontophoresis ([2]; Ag/AgCl negative electrodes (reversible)): increase very greatly
- Fraction of active principle used (%) ([2]; at 6 hours, test 1a: titanium, 0 V (passive)): ~ zero
- Fraction of active principle used (%) ([2]; at 6 hours, test 1b: graphite, 1.1 V): 0.1%
- Fraction of active principle used (%) ([2]; at 6 hours, test 1c: titanium, 1.1 V): 0.08%
- Fraction of active principle used (%) ([2]; at 6 hours, test 1e: Ag/AgCl, 1.1 V, no buffer): 2.8%
- Fraction of active principle used (%) ([2]; at 6 hours, test 1d: Ag/AgCl, 1.1 V, buffer): 1.4%
- Fraction of active principle used (%) ([2]; at 24 hours, test 1a: titanium, 0 V (passive)): ~ zero
- Fraction of active principle used (%) ([2]; at 24 hours, test 1b: graphite, 1.1 V): 0.2%
- Fraction of active principle used (%) ([2]; at 24 hours, test 1c: titanium, 1.1 V): 0.15%
- Fraction of active principle used (%) ([2]; at 24 hours, test 1e: Ag/AgCl, 1.1 V, no buffer): 3.3%
- Fraction of active principle used (%) ([2]; at 24 hours, test 1d: Ag/AgCl, 1.1 V, buffer): 1.5%
- Antifactor activity Xa/ml at 6 hours ([2]; test 1a: titanium electrodes, 0 V (passive), buffer pH about 7): < 0.1 units per ml
- Antifactor activity Xa/ml at 24 hours ([2]; test 1a: titanium, 0 V (passive)): 0.25 units per ml
- Antifactor activity Xa/ml at 6 hours ([2]; test 1b: graphite electrode, average 1.1 V, buffer): 0.70 units per ml
- Antifactor activity Xa/ml at 24 hours ([2]; test 1b: graphite, 1.1 V, 18 hours after current stopped): 1.13 units per ml
- Antifactor activity Xa/ml at 6 hours ([2]; test 1c: titanium electrode, average 1.1 V, buffer): 0.50 units per ml
- Antifactor activity Xa/ml at 24 hours ([2]; test 1c: titanium, 1.1 V, 18 hours after current stopped): 0.95 units per ml
- Antifactor activity Xa/ml at 6 hours ([2]; test 1e: Ag/AgCl electrode, average 1.1 V, about 0.20 mA/cm^2, no buffer): 18.1 units per ml
- Antifactor activity Xa/ml at 24 hours ([2]; test 1e: Ag/AgCl, 1.1 V, no buffer, 18 hours after current stopped): 21.4 units per ml
- Antifactor activity Xa/ml at 6 hours ([2]; test 1d: Ag/AgCl electrode, average 1.1 V, about 0.20 mA/cm^2, buffer): 9.1 units per ml
- Antifactor activity Xa/ml at 24 hours ([2]; test 1d: Ag/AgCl, 1.1 V, buffer, 18 hours after current stopped): 9.7 units per ml
SMILES: O=C(O)C1OC(OC2C(COS(=O)(=O)O)OC(OC3C(C(=O)O)OC(OC4C(COS(=O)(=O)O)OC(O)C(NS(=O)(=O)O)C4O)C(OS(=O)(=O)O)C3O)C(NS(=O)(=O)O)C2OS(=O)(=O)O)C(O)C(O)C1OC1OC(COS(=O)(=O)O)C(O)C(O)C1NS(=O)(=O)O (stereo not drawn) [pentasaccharide]
- Plasma level at 15 minutes [1, 3]: 0.06 ± 0.04 "Golden standard" units of ant
- Plasma level at 30 minutes [1, 3]: 0.15 ± 0.12 "Golden standard" units of ant
- Plasma level at 1 hour [1, 3]: 0.31 ± 0.15 "Golden standard" units of ant
- Plasma level at 2 hours [1, 3]: 0.45 ± 0.2 "Golden standard" units of ant
- Plasma level at 4 hours [1, 3]: 0.64 ± 0.18 "Golden standard" units of ant
- Plasma level at 6 hours [1, 3]: 0.74 ± 0.16 "Golden standard" units of ant
- Plasma level at 8 hours [1, 3]: 0.52 ± 0.13 "Golden standard" units of ant
- Plasma level at 12 hours [1, 3]: 0.4 ± 0.08 "Golden standard" units of ant
- Plasma level at 24 hours [1, 3]: 0.11 ± 0.03 "Golden standard" units of ant
- Plasma level at 5 minutes [1, 4]: 1.04 ± 0.12 "Golden standard" units of ant
- Plasma level at 15 minutes [1, 4]: 0.91 ± 0.13 "Golden standard" units of ant
- Plasma level at 30 minutes [1, 4]: 0.65 ± 0.11 "Golden standard" units of ant
- Plasma level at 1 hour [1, 4]: 0.53 ± 0.10 "Golden standard" units of ant
- Plasma level at 2 hours [1, 4]: 0.30 ± 0.09 "Golden standard" units of ant
- Plasma level at 4 hours [1, 4]: 0.29 ± 0.08 "Golden standard" units of ant
- Plasma level at 6 hours [1, 4]: 0.22 ± 0.09 "Golden standard" units of ant
- Plasma level at 8 hours [1, 4]: 0.17 ± 0.06 "Golden standard" units of ant
- Plasma level at 12 hours [1, 4]: 0.07 ± 0.05 "Golden standard" units of ant
- Plasma level at 15 minutes [1, 5]: 0.11 ± 0.04 "Golden standard" units of ant
- Plasma level at 1 hour [1, 5]: 0.17 ± 0.01 "Golden standard" units of ant
- Plasma level at 2 hours [1, 5]: 0.22 ± 0.04 "Golden standard" units of ant
- Plasma level at 4 hours [1, 5]: 0.26 ± 0.06 "Golden standard" units of ant
- Plasma level at 6 hours [1, 5]: 0.24 ± 0.01 "Golden standard" units of ant
- Plasma level at 8 hours [1, 5]: 0.15 ± 0.07 "Golden standard" units of ant
- Plasma level at 12 hours [1, 5]: 0.08 ± 0.03 "Golden standard" units of ant
- quantities of pentasaccharide diffused into the receiver compartment by iontophoresis ([2]; irreversible electrodes such as graphite or titanium): very small and similar to the passive transport

From patent US5928185A, “Iontophoresis device for the transcutaneous delivery of an active principle such as an anionic oligosaccharide” (Sanofi, priority 1995, dated 1999)
